Measurements published in ChEMBL document CHEMBL5316334, “Structure-Based Design of Novel Alkynyl Thio-Benzoxazepinone Receptor-Interacting Protein Kinase-1 Inhibitors: Extending the Chemical Space from the Allosteric to ATP Binding Pockets” (J Med Chem, 2023).
The source made the active and inactive calls. The calls are words filed in the database; no cut-off is given here.

Legend:
HT-29 [1] = assay: Anti-necroptosis activity against human HT-29 cells assessed as inhibition of TSZ-induced necroptosis preincubated for 30 mins followed by compound addition and measured for 16 hrs by Cell-titer-glo assay; format: functional, cell-based
HT-29 [2] = assay: Cytotoxicity against human HT-29 cells assessed as reduction in cell viability measured for 16 to 24 hrs by Cell-titer-glo assay; format: functional; conditions: time 16-24 hrs
[3] = target: T1, Receptor-interacting serine/threonine-protein kinase 1 (Homo sapiens, UniProt Q13546); assay: Binding affinity to recombinant RIPK1 (unknown origin) assessed as dissociation constant by kinomescan assay
T1 sequence (Q13546 whole entry): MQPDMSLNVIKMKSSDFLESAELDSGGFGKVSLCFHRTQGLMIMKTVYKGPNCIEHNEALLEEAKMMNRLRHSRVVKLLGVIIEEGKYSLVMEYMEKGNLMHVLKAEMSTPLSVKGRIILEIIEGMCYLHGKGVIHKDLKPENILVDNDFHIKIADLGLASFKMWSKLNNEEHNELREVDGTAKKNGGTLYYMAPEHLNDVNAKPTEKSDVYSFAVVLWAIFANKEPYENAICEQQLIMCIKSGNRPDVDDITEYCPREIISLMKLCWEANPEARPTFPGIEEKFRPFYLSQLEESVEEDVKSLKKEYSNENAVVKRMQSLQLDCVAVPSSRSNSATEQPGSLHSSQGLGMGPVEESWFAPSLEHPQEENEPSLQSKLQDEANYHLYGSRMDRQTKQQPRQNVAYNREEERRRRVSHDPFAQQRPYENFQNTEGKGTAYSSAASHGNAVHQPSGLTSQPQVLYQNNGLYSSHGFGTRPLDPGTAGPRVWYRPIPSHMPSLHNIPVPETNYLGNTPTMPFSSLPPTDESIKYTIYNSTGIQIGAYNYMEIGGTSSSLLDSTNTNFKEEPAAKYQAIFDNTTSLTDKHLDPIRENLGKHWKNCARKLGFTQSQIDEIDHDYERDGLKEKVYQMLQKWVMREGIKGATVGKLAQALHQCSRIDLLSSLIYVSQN

HT-29 [4] = assay: Anti-necroptosis activity against human HT-29 cells assessed as inhibition of TSZ-induced necroptosis pretreated with compound followed by TSZ induction and measured for 12 hrs by Cell-titer-glo assay; format: functional, cell-based; conditions: dose 0.63-100 nM
U-937 = assay: Anti-necroptic activity against human U-937 cells assessed as inhibition of TSZ-induced necroptosis at 100 nM pretreated with compound followed by TSZ induction and measured for 12 hrs by Cell-titer-glo assay; format: functional, cell-based
HT-29 [5] = assay: Anti-necroptic activity in human HT-29 cells assessed as inhibition of TNFalpha and cycloheximide-induced necroptosis pretreated with compound followed by TNFalpha and cycloheximide-induction and measured after 24 hrs by Cell-titer-glo assay; format: functional, cell-based
L929 = assay: Anti-necroptic activity against mouse L929 cells assessed as inhibition of TNFalpha/z-VAD-FMK-induced necroptosis pretreated with compound followed by TNFalpha/z-VAD-FMK-induction and measured after 24 hrs by Cell-titer-glo assay; format: functional, cell-based; conditions: dose 0.02-10 µM
[6] = target: T2, Receptor-interacting serine/threonine-protein kinase 1 (Homo sapiens) (UniProt Q13546); assay: Inhibition of RIPK1 phosphorylation in TSZ (TNFalpha, Smac mimetic and z-VAD-FMK) induced-human HT-29 cells assessed as decrease in phosphorylated RIPK1 level at 12 nM pretreated with compound followed by TSZ-induction and measured after 6 hrs by immunoblotting analysis; format: cell-based
T2 sequence (whole entry): T1 sequence (Q13546 whole entry)

[7] = target: Receptor-interacting serine/threonine-protein kinase 3 (Homo sapiens) (UniProt Q9Y572); assay: Inhibition of RIPK3 phosphorylation […] (TNFalpha, Smac mimetic and z-VAD-FMK) induced-human HT-29 cells assessed as decrease in phosphorylated RIPK3 level at 12 nM pretreated with compound followed by TSZ-induction and measured after 6 hrs by immunoblotting analysis; format: cell-based
[8] = target: T3, Mixed lineage kinase domain-like protein (Homo sapiens) (UniProt Q8NB16); assay: Inhibition of MLKL phosphorylation […] (TNFalpha, Smac mimetic and z-VAD-FMK) induced-human HT-29 cells assessed as decrease in phosphorylated MLKL level at 12 nM pretreated with compound followed by TSZ-induction and measured after 6 hrs by immunoblotting analysis; format: cell-based
T3 sequence (whole entry): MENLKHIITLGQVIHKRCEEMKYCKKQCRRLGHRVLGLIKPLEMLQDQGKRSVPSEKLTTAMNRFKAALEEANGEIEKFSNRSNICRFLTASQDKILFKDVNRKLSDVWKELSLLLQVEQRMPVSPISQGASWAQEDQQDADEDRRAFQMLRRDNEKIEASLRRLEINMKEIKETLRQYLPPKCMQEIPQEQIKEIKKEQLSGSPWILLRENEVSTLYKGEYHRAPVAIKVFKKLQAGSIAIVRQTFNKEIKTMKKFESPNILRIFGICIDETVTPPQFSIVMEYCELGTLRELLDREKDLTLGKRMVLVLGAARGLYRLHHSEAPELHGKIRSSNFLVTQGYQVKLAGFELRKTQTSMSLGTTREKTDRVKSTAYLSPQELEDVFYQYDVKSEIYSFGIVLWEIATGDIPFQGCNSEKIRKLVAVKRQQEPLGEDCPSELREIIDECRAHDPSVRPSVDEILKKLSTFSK

[9] = target: T2, Receptor-interacting serine/threonine-protein kinase 1 (Homo sapiens); assay: Inhibition of RIPK1 phosphorylation in TSZ (TNFalpha, Smac mimetic and z-VAD-FMK) induced-human HT-29 cells assessed as decrease in phosphorylated RIPK1 level pretreated with compound followed by TSZ-induction and measured after 6 hrs by immunoblotting analysis; format: cell-based; conditions: dose 1.5-12 nM
[10] = target: Receptor-interacting serine/threonine-protein kinase 3 (Homo sapiens) (UniProt Q9Y572); assay: Inhibition of RIPK3 phosphorylation in TSZ (TNFalpha, Smac mimetic and z-VAD-FMK) induced-human HT-29 cells assessed as decrease in phosphorylated RIPK3 level pretreated with compound followed by TSZ-induction and measured after 6 hrs by immunoblotting analysis; format: cell-based; conditions: dose 1.5-12 nM
[11] = target: T3, Mixed lineage kinase domain-like protein (Homo sapiens); assay: Inhibition of MLKL phosphorylation in TSZ (TNFalpha, Smac mimetic and z-VAD-FMK) induced-human HT-29 cells assessed as decrease in phosphorylated MLKL level pretreated with compound followed by TSZ-induction and measured after 6 hrs by immunoblotting analysis; format: cell-based; conditions: dose 1.5-12 nM
[12] = target: T2, Receptor-interacting serine/threonine-protein kinase 1 (Homo sapiens); assay: Inhibition of RIPK1 phosphorylation in TSZ (TNFalpha, Smac mimetic and z-VAD-FMK) induced-human HT-29 cells assessed as decrease in phosphorylated RIPK1 level at 12 nM pretreated with compound followed by TSZ-induction by immunoblotting analysis; format: cell-based; conditions: time 6.0 hrs, TDE = time-dependent effect
[13] = target: Receptor-interacting serine/threonine-protein kinase 3 (Homo sapiens) (UniProt Q9Y572); assay: Inhibition of RIPK3 phosphorylation in TSZ (TNFalpha, Smac mimetic and z-VAD-FMK) induced -human HT-29 cells assessed as decrease in phosphorylated RIPK3 level at 12 nM pretreated with compound followed by TSZ-induction by immunoblotting analysis; format: cell-based; conditions: time 2-6 hrs, TDE = time-dependent effect
[14] = target: T3, Mixed lineage kinase domain-like protein (Homo sapiens); assay: Inhibition of MLKL phosphorylation in TSZ (TNFalpha, Smac mimetic and z-VAD-FMK) induced-human HT-29 cells assessed as decrease in phosphorylated MLKL level at 12 nM pretreated with compound followed by TSZ-induction by immunoblotting analysis; format: cell-based; conditions: time 2-6 hrs, TDE = time-dependent effect
HT-29 [15] = assay: Inhibition of RIPK1-RIPK3-MLKL pathway in TSZ induced human HT-29 cells assessed as reduction in necrosome formation at 12 nM measured after 6 hrs by Western blot analysis; format: cell-based
Mus musculus [16] = assay: Anti-necroptosis activity against TNFalpha-induced C57BL/6 mouse systemic inflammatory response syndrome model assessed as protection of body temperature at 5 to 20 mg/kg, IG pretreated with compound followed by TNFalpha-stimulation and measured after 2 to 3 hrs by thermometer analysis; format: functional, organism-based; conditions: dose 5-20 mg/kg, time 2-3 hrs
Mus musculus [17] = assay: Anti-necroptic activity against mTNFalpha induced C57BL/6 mouse systemic inflammatory response syndrome model assessed as increase in survival rate 5 mg/kg, IG pretreated with compound for 1 hr followed by mTNFalpha injection and measured after 15 mins; format: functional; conditions: time 75 min, 1.25 h
Mus musculus [18] = assay: Anti-necroptic activity against mTNFalpha induced C57BL/6 mouse systemic inflammatory response syndrome model assessed as increase in survival rate 10 mg/kg, IG pretreated with compound for 1 hr followed by mTNFalpha injection and measured after 15 mins; format: functional; conditions: time 75 min, 1.25 h
Mus musculus [19] = assay: Anti-necroptic activity against mTNFalpha induced C57BL/6 mouse systemic inflammatory response syndrome model assessed as increase in survival rate 20 mg/kg, IG pretreated with compound for 1 hr followed by mTNFalpha injection and measured after 15 mins; format: functional; conditions: time 75 min, 1.25 h
Mus musculus [20] = assay: Anti-necroptic activity against TNFalpha-induced C57BL/6 mouse systemic inflammatory response syndrome model assessed as protection of body temperature at 20 mg/kg, IG pretreated with compound followed by TNFalpha-stimulation and measured after 2 to 3 hrs by thermometer analysis; format: functional, organism-based; conditions: time 2-3 hrs
Mus musculus [21] = assay: Anti-necroptic activity against TNFalpha-induced C57BL/6 mouse serum assessed as reduction in IL-6 level at 20 mg/kg, IG pretreated with compound followed by TNFalpha-stimulation for 4 hrs; format: functional, organism-based
Mus musculus [22] = assay: Anti-necroptic activity against TNFalpha-induced C57BL/6 mouse serum assessed as reduction in IL-1beta level at 20 mg/kg, IG pretreated with compound followed by TNFalpha-stimulation for 4 hrs; format: functional, organism-based
Mus musculus [23] = assay: Anti-necroptic activity against mTNFalpha induced C57BL/6 mouse systemic inflammatory response syndrome model assessed as increase in survival rate 20 mg/kg, IG pretreated with compound for 1 hr followed by mTNFalpha injection and measured after 60 mins; format: functional; conditions: time 2 hrs
Mus musculus [24] = assay: Anti-necroptic activity against mTNFalpha induced C57BL/6 mouse systemic inflammatory response syndrome model assessed as increase in survival rate 5 mg/kg, IG pretreated with compound for 1 hr followed by mTNFalpha injection and measured after 60 mins; format: functional; conditions: time 2 hrs
HT-29 [25] = assay: Cytotoxicity against human HT-29 cells assessed as reduction in cell viability at 100 uM measured for 16 to 24 hrs by Cell-titer-glo assay; format: functional, cell-based; conditions: time 16-24 hrs
Mus musculus [26] = assay: Anti-necroptic activity against mTNFalpha induced C57BL/6 mouse systemic inflammatory response syndrome model assessed as increase in survival rate 15 mg/kg, IG pretreated with compound for 1 hr followed by mTNFalpha injection and measured after 15 mins; format: functional; conditions: time 75 min, 1.25 h
Mus musculus [27] = assay: Anti-necroptic activity against TNFalpha-induced C57BL/6 mouse serum assessed as reduction in IL-6 level at 5 mg/kg, IG pretreated with compound followed by TNFalpha-stimulation for 4 hrs; format: functional, organism-based
Mus musculus [28] = assay: Anti-necroptic activity against TNFalpha-induced C57BL/6 mouse serum assessed as reduction in IL-1beta level at 5 mg/kg, IG pretreated with compound followed by TNFalpha-stimulation for 4 hrs; format: functional, organism-based

Sequence of Receptor-interacting serine/threonine-protein kinase 3 (Homo sapiens) (Q9Y572 whole entry, looked up, the tested form may be a part): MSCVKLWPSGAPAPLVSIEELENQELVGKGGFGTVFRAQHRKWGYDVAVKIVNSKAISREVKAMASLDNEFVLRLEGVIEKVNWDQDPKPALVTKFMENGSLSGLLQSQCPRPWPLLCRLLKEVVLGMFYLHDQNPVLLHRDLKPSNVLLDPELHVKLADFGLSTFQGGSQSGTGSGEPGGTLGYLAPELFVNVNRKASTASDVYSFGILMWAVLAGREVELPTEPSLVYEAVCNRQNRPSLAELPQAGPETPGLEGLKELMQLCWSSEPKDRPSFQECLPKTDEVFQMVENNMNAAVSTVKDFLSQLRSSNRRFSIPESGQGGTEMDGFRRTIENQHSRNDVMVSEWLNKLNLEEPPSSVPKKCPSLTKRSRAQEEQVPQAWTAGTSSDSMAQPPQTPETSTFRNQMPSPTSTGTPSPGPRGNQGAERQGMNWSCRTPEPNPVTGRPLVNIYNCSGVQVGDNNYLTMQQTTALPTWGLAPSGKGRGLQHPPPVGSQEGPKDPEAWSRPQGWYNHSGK

Row | Structure (SMILES) | EC50 (HT-29 [1]) [nM] | CC50 (HT-29 [2]) [nM] | Kd [3] [nM] | Activity (U-937) | Activity (HT-29 [5]) | Activity (L929) | inhibition [6] | inhibition [7] | inhibition [8] | inhibition [9] | inhibition [10] | inhibition [11] | inhibition [12] | inhibition [13] | inhibition [14] | inhibition (HT-29 [15]) | Activity (Mus musculus [16]) | Activity (Mus musculus [17]) [%] | Activity (Mus musculus [18]) [%] | Activity (Mus musculus [20]) | also measured
1 | C#Cc1ccc2c(c1)N(C)C(=S)[C@@H](NC(=O)c1n[nH]c(Cc3ccccc3)n1)CO2 | 3.7 | > 100000 | 9.7 | Active | inactive | Dose-Dependent Effect | Active | Active | Active | Dose-Dependent Effect | Dose-Dependent Effect | Dose-Dependent Effect | Tde | Tde | Tde | Active | Active | 66 | 83 | Active | Activity (HT-29 [4]): Dose-Dependent Effect; Activity (Mus musculus [19]): 100%; Activity (Mus musculus [21]): Active; Activity (Mus musculus [22]): Active
2 | CN1C(=O)[C@@H](NC(=O)c2n[nH]c(Cc3ccccc3)n2)COc2ccccc21 [GSK2982772] | – | > 100000 | – | – | – | – | – | – | – | – | – | – | – | – | – | – | Active | – | – | – | Activity (Mus musculus [23]): 92%; Activity (Mus musculus [24]): 50%
3 | CN1C(=S)[C@@H](NC(=O)c2n[nH]c(Cc3ccccc3)n2)COc2ccc(C#Cc3cccc(C#N)c3)cc21 | 3.2 | > 100000 | 70 | Active | inactive | Dose-Dependent Effect | Active | Active | Active | Dose-Dependent Effect | Dose-Dependent Effect | Dose-Dependent Effect | Tde | Tde | Tde | Active | – | 58 | 83 | Active | Activity (HT-29 [25]): inactive; Activity (Mus musculus [26]): 100%; Activity (Mus musculus [27]): Active; Activity (Mus musculus [28]): Active
